Experimental data reported in ChEMBL document CHEMBL4342491, “Development of a Versatile and Sensitive Direct Ligand Binding Assay for Human NR5A Nuclear Receptors” (ACS Med Chem Lett, 2020).

Experiments:
Steroidogenic factor 1 [1] = biological target: T1, Steroidogenic factor 1 (Homo sapiens, UniProt Q13285)
Description: Displacement of 6N-FAM from SF1 LBD (218 to 461 residues) (unknown origin) expressed in Escherichia coli BL21 pLysS by competitive binding based fluorescence polarization assay

Steroidogenic factor 1 [2] = biological target: T1, Steroidogenic factor 1; assay: Binding affinity to human SF1 LBD (218 to 461 residues) expressed in Escherichia coli BL21 by electrophoretic mobility shift assay
[3] = biological target: Nuclear receptor subfamily 5 group A member 2 (Homo sapiens) (UniProt O00482); assay: Binding affinity to human LRH1 LBD expressed in Escherichia coli BL21 by electrophoretic mobility shift assay
Sequence of Nuclear receptor subfamily 5 group A member 2 (Homo sapiens) (O00482 whole entry, the tested form may be a part): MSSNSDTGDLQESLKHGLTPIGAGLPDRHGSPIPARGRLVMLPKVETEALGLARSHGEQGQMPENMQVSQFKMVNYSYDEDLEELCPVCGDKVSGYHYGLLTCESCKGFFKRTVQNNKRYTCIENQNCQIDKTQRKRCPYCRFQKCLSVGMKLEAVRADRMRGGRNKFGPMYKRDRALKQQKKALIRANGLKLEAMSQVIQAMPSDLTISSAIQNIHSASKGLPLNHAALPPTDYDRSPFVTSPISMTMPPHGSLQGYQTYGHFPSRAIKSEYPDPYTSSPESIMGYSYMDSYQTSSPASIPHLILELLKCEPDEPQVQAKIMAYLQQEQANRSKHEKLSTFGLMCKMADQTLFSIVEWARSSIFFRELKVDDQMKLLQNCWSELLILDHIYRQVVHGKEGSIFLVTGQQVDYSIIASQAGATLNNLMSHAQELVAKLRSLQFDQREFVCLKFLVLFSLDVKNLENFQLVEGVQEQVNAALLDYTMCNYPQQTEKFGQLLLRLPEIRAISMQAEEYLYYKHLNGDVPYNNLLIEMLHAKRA

Steroidogenic factor 1 [4] = biological target: T1, Steroidogenic factor 1; assay: Binding affinity to SF1 LBD (218 to 461 residues) (unknown origin) expressed in Escherichia coli BL21 pLysS measured after overnight incubation by fluorescence polarization assay
Steroidogenic factor 1 [5] = biological target: T1, Steroidogenic factor 1; assay: Inhibition of Gal4-fused human SF1 LBD (198 to 462 residues) expressed in CHO-K1 cells; assay type: cell-based

T1 sequence (Q13285 whole entry, the tested form may be a part): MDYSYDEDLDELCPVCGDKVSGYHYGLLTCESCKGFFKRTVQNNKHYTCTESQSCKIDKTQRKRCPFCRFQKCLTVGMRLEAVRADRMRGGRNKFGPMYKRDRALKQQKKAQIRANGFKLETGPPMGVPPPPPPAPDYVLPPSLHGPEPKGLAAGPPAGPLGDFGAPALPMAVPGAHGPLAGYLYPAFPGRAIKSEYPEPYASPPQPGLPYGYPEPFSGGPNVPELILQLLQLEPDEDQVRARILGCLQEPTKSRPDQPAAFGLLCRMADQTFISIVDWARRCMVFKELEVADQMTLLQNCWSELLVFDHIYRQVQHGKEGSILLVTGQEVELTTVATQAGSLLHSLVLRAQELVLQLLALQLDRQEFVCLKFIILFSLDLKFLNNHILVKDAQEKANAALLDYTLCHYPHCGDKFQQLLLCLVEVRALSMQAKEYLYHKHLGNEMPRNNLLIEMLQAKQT

Structure (SMILES) | Ki (Steroidogenic factor 1 [1]) [µM] | further results
C=C(c1ccccc1)[C@@]12CC[C@H](NS(N)(=O)=O)C1CC(CCCCCC)=C2c1ccccc1 (some centres undefined) | 1.4 | –
CCCCNC(=O)c1cc(C(C)(C)C)cc(C(C)(C)C)c1O | 34.7 | –
CCCCC/C=C\C/C=C\C/C=C\C/C=C\CCCC(=O)OC(COC(=O)CCCCCCCCCCCCCCCCC)COP(=O)(O)O[C@@H]1[C@H](O)[C@H](O)[C@@H](OP(=O)(O)O)[C@H](OP(=O)(O)O)[C@H]1O (some centres undefined) | 0.418 | Activity (Steroidogenic factor 1 [2]): 250 nM
CCCC(=O)OC[C@H](COP(=O)(O)O[C@H]1[C@H](O)[C@@H](OP(=O)(O)O)[C@H](OP(=O)(O)O)[C@@H](OP(=O)(O)O)[C@H]1O)OC(=O)CCC | – | Activity [3]: 120 nM
C=C(c1ccccc1)[C@@]12CC[C@H](NS(N)(=O)=O)[C@@H]1CC(CCCCCCCCCC(=O)Nc1ccc3c(c1)C(=O)OC31c3ccc(O)cc3Oc3cc(O)ccc31)=C2c1ccccc1 | – | Kd (Steroidogenic factor 1 [4]): 0.0123 µM
C=C(c1ccccc1)[C@@]12CC[C@H](N)[C@@H]1CC(CCCCCCCCCC(=O)OC)=C2c1ccccc1 | 7.8 | –
CCCCCCCCCCCC(=O)OC[C@H](COP(=O)([O-])OCC[N+](C)(C)C)OC(=O)CCCCCCCCCCC | 0.85 | –
CCOC(=O)C(C)Oc1cccc2c(=O)n(CC(=O)Nc3ccc4c(c3)OCCO4)ccc12 (centres undefined) | – | IC50 (Steroidogenic factor 1 [5]): 0.03 µM
